Measurements taken from article PMC9100525, “CsCuAOs and CsAMADH1 Are Required for Putrescine-Derived γ-Aminobutyric Acid Accumulation in Tea” (Foods, 2022).

Key:
Format in all cases: biochemical
[1] = target: T1, CsAMADH1 (Camellia sinensis, UniProt I7F760); assay: NADH formation at […] nm; Lineweaver-Burk; settings: 0.1 M potassium phosphate pH 8.0; 0.001 M NAD+ as co-substrate; unit "Mm" [sic] (substrate range 0.1-100 mM)
T1 construct: recombinant GST fusion, pGEX-4T-1, purified; plastid-localized; gene from Tea Plant Information Archive, locus id not given
T1 sequence (I7F760 1-505): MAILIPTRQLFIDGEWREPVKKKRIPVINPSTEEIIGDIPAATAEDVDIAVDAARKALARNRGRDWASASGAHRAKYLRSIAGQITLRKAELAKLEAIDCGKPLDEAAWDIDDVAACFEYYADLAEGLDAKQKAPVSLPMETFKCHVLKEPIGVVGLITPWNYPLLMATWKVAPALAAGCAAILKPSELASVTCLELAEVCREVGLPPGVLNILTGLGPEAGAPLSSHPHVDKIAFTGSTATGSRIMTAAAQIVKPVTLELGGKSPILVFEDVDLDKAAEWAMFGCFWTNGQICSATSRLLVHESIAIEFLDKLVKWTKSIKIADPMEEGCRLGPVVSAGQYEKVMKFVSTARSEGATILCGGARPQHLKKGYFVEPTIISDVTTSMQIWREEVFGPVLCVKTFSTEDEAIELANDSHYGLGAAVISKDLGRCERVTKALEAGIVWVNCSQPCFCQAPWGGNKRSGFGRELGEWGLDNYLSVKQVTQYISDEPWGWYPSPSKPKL

[2] = target: T2, CsCuAO3 (Camellia sinensis, UniProt A0A4S4DQ49); assay: peroxidase-coupled 4-aminoantipyrine/N,N-dimethylaniline assay at […] nm; Lineweaver-Burk; settings: 0.1 M potassium phosphate pH 6.5; O2 co-substrate; unit "Mm" [sic] (substrate range 0.1-100 mM)
T2 construct: gene TEA_013658; recombinant GST fusion, pGEX-4T-1, purified; peroxisomal; copper/TPQ enzyme, CuAOs stated as homodimer in general; gene from Tea Plant Information Archive, locus id not given
T2 sequence (A0A4S4DQ49 1-679): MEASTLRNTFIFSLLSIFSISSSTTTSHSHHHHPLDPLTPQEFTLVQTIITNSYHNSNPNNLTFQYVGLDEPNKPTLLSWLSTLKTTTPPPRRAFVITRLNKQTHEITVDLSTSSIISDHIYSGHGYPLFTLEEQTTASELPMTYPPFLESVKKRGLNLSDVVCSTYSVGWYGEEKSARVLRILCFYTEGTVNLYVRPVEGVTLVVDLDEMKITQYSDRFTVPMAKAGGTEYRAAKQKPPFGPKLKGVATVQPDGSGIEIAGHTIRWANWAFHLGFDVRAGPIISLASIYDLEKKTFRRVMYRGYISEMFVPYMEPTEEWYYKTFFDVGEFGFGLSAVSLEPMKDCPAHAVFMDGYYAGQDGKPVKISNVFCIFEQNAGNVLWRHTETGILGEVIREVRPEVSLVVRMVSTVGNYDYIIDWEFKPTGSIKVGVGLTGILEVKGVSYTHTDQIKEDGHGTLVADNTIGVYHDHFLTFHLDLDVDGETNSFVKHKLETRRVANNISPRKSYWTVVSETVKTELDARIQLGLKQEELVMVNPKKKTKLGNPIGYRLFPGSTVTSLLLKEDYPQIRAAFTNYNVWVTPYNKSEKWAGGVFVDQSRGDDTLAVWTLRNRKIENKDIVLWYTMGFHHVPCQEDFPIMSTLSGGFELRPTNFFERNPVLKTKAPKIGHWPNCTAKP

[3] = target: T3, CsCuAO1 (Camellia sinensis, UniProt A0A4S4D8A3); assay: as above; settings: 0.1 M potassium phosphate pH 6.5; O2 co-substrate; unit "Mm" [sic] (substrate range 0.1-100 mM)
T3 construct: gene TEA_026770; recombinant GST fusion, pGEX-4T-1, purified; peroxisomal; copper/TPQ enzyme, CuAOs stated as homodimer in general; gene from Tea Plant Information Archive, locus id not given
T3 sequence (A0A4S4D8A3 1-662): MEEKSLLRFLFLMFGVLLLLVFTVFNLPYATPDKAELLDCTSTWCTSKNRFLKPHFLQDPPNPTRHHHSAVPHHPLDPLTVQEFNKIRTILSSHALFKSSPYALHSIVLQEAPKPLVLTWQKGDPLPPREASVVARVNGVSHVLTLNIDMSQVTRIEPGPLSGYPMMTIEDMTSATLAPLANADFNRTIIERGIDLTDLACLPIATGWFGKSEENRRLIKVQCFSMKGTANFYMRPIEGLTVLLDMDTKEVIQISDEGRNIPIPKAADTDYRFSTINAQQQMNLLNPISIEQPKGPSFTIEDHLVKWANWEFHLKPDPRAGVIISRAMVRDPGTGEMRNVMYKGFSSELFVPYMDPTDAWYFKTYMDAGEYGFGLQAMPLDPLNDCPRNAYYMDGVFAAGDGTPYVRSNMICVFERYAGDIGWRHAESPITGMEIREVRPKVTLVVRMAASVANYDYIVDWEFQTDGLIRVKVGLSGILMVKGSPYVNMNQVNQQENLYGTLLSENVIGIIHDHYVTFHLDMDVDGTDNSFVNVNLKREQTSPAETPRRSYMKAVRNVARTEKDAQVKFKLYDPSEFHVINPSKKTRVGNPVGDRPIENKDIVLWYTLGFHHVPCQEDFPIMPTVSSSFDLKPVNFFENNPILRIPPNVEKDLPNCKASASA

Km [1] [Mm]	Km [2] [Mm]	Km [3] [Mm]	Structure (SMILES)
25.7			NCCCC=O [4-ABAL]
	15.8	21.9	NCCCCN [putrescine]
